{
  "source": "patent US11559484B2",
  "about": "“Film formulations containing dexmedetomidine and methods of producing them” (BioXcel Therapeutics, Inc., priority 2018, dated 2023)",
  "key": {"[1]": {"settings": "human, in vivo, iv"}, "[2]": {"settings": "IV infusion from 0.2 mcg/kg/hr, schizophrenia patients", "method": "All participants were screened for inclusion and exclusion criteria. The participants were admitted to the site at screening (Day −1), the day before the infusion. Baseline assessments were performed on Day −1, as well as on the day of infusion (Day 1). The participants were on Day 1 prepared for the infusion, infused for up to 3 hours and monitored for resolution of sedation and any decreases in blood pressure or heart rate which met stopping criteria. The participants were not discharged from the research unit until three hours after resolution of any reduction in the level of arousal (e.g., RASS −1) and/or resolution of any decrease in blood pressure or heart rate meeting stopping criteria.\nParticipants randomized to placebo received a matching intravenous infusion of placebo solution.\nOnce the participant was drowsy (RASS −1), the infusion was stopped. […]\n(1) Richmond Agitation Sedation Scale (RASS): The desired endpoint was how rapidly drowsiness (RASS −1) could be achieved without causing changes in heart rate or blood pressure greater than that specified by the protocol. The study also monitored how long the participant remained at that level of sedation; sedation was considered resolved when the participant was awake and spontaneously responding."}, "[3]": {"settings": "sublingual dose of 100 micrograms, human subjects; cited from earlier work"}},
  "note": "Where a name gives a salt, the structure may show the parent alone.",
  "data": [
    {"smiles": "Cc1cccc([C@H](C)c2cnc[nH]2)c1C", "note": "[dexmedetomidine hydrochloride, (+) 4-(S)-[1-(2,3-dimethylphenyl)ethyl]-1H-imidazole]", "values": [
      {"measurement": "Time to reach Cmax", "setting": "[1]", "result": "15 to 105", "unit": "min"},
      {"measurement": "patients in the treatment arm achieving a RASS score of at least −1", "setting": "[2]", "result": "9 out of 10"},
      {"measurement": "patients in the treatment arm with agitation reduced to a minimum (PEC score of 7 or below)", "setting": "IV infusion, schizophrenia patients", "result": "9 out of 10"},
      {"measurement": "subjects with >=50% reduction in PEC score", "setting": "IV route, schizophrenia", "result": "7 of 10"},
      {"measurement": "hypotension post-administration", "setting": "[3]", "result": "Hypotension was observed"}
    ]}
  ]
}
